# Reference: BindingDB's records for doi:10.1021/bi301387m (University of Auckland, 2013)
# Target: T1, Anthranilate phosphoribosyltransferase (Mycobacterium tuberculosis (strain CDC 1551 / Oshkosh), UniProt P9WFX4)
# T1 sequence (P9WFX4 whole entry): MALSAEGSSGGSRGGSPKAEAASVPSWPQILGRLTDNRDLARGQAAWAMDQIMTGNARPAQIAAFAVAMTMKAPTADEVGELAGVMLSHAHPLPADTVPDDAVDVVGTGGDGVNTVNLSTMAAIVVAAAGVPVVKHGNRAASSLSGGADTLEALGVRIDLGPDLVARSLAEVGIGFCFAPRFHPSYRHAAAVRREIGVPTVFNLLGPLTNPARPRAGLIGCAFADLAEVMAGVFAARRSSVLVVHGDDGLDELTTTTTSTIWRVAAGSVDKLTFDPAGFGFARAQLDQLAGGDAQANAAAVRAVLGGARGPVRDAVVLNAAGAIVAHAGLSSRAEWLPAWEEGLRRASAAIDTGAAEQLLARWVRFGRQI
# Assay: Fluoresence-based Assay
# Excerpt: An enzyme-coupled absorbance-based assay developed in house was used to determine the inhibitor-enzyme kinetic parameters of Mtb-AnPRT, including ki values for the inhibitors.
row,Structure (SMILES),Ki [µM]
1,COc1ccc(C(=O)O)cc1N [ACS No 126],60
2,NC(CCCNc1ccc([N+](=O)[O-])cc1[N+](=O)[O-])CC(=O)O (configuration not stated) [ACS No 165],79
